The target in one assay is T1, human CA-IX (Homo sapiens, UniProt Q16790).
T1 construct: purchased Acro CA9-H82E3
The assay is described as follows: Surface Plasmon Resonance (SPR) binding kinetics to recombinant human CA-IX (Biacore 8K, single-cycle kinetics, 1:1 binding model). A digest of the protocol:
(§1)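 Recombinant human CA-IX or CA-XII captured on streptavidin chips (1200-1800 RU) in PBS-P+, pH 7.4. Single-cycle kinetics over 9 analyte concentrations (100-0.39 nM) with 1% DMSO, 120 s association, 1200 s dissociation, 25° C. Reference- and DMSO-corrected curves fit to 1:1 model for on/off rates.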
(Surface plasmon resonance follows binding to a sensor surface in real time, without labels.)

The target in a further assay is T2, human CA-XII (Homo sapiens, UniProt O43570).
T2 construct: purchased Creative BioMart CA12-261H
T2 sequence (O43570 25-354): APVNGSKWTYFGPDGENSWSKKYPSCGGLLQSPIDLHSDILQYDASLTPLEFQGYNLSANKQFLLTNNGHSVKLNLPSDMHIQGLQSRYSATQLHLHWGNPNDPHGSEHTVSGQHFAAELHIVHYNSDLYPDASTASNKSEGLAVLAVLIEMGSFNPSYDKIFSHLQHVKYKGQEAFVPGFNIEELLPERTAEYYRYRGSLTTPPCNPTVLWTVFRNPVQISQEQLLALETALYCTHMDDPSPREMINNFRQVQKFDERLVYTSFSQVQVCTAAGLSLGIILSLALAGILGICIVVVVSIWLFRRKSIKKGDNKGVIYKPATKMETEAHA
Briefly: Surface Plasmon Resonance (SPR) binding kinetics to recombinant human CA-XII (Biacore 8K, single-cycle kinetics, 1:1 binding model). A digest of the protocol:
as §1

The mark [1] stands for this setting: Chelated Metal: Lu-175; SPR, 25° C., pH 7.4; read-out: CAIX KD.
The mark [2] stands for this setting: Chelated Metal: Lu-175, 25° C., pH 7.4, read-out: CAXII KD.
Setting [3] is: read-out: CAIX KD; Chelated Metal: Lu-175; SPR, 25° C., pH 7.4.
The mark [4] stands for this setting: read-out: CAXII KD, Chelated Metal: Lu-175, 25° C., pH 7.4.

The text below walks through data of US20260325685A1, “Radiopharmaceutical Compositions Targeting Carbonic Anhydrase IX and Uses Thereof” (RayzeBio, Inc., priority 2023, published 2026).

Like-named read-outs stand apart in the source and are kept apart here.

One may read the Kd as a measure of binding affinity in units of concentration.

For `NS(=O)(=O)c1nnc(NC(=O)C23CC(c4cn(CCNC(=O)[C@@H]5CN(C(=O)CN6CCN(CC(=O)O)CCN(CC(=O)O)CCN(CC(=O)O)CC6)CCN5C(=O)C[C@H](NC(=O)C[C@H](NC(=O)c5coc(C6CC6)n5)C(=O)O)C(=O)O)nn4)(C2)C3)s1.[Lu+3]` [Compound 109.8], the Kd on human CA-IX (setting [1]) was 1 to 2.5 nM; at human CA-XII (setting [2]), 2.5 to 10 nM.

On to `NS(=O)(=O)c1nnc(NC(=O)C23CC(c4cn(CCNC(=O)[C@@H]5CN(C(=O)CN6CCN(CC(=O)O)CCN(CC(=O)O)CCN(CC(=O)O)CC6)CCN5C(=O)C[C@H](NC(=O)C[C@H](NC(=O)c5cccc(C6CC6)c5)C(=O)O)C(=O)O)nn4)(C2)C3)s1.[Lu+3]` [Compound 109], for which the Kd at human CA-IX (setting [3]) was less than 1 nM; on human CA-XII (setting [4]) it was 2.5 to 10 nM.

Consider `CC(CCC(=O)N[C@@H](CC(=O)N[C@@H](CC(=O)N[C@@H](CCCCn1cc(C23CCC(C(=O)Nc4nnc(S(N)(=O)=O)s4)(CC2)C3)nn1)C(=O)NCCOCCOCCNC(=O)CN1CCN(CC(=O)O)CCN(CC(=O)O)CCN(CC(=O)O)CC1)C(=O)O)C(=O)O)(c1ccc(O)cc1)c1ccc(O)cc1.[Lu+3]` [Compound 100.1], for which the Kd is less than 1 nM on human CA-IX (setting [1]) and 1 to 2.5 nM at human CA-XII (setting [2]).

Regarding `CC(CCCC(=O)N1CCC(C(N)=O)(C(=O)NCC(=O)N2CCN(C(=O)CN3CCN(CC(=O)O)CCN(CC(=O)O)CC3)C[C@H]2C(=O)NCCn2cc(C34CC(C(=O)Nc5nnc(S(N)(=O)=O)s5)(C3)C4)nn2)CC1)(c1ccc(O)cc1)c1ccc(O)cc1.[Cu+2]` [Compound 126], the Kd on human CA-IX (Chelated Metal: Cu (cold); SPR, 25° C., pH 7.4; read-out: CAIX KD) is less than 1 nM; on human CA-XII (Chelated Metal: Cu (cold), 25° C., pH 7.4, read-out: CAXII KD), greater than 10 nM.

As for `NS(=O)(=O)c1nnc(NC(=O)C23CC(c4cn(CCNC(=O)[C@@H]5CN(C(=O)CN6CCN(CC(=O)O)CCN(CC(=O)O)CCN(CC(=O)O)CC6)CCN5C(=O)C[C@H](NC(=O)C[C@H](NC(=O)c5ccc(S(F)(F)(F)(F)F)cc5)C(=O)O)C(=O)O)nn4)(C2)C3)s1.[Lu+3]` [Compound 109.16], the values for the Kd on human CA-IX (setting [1]) and on human CA-XII (setting [2]) were less than 1 nM and 2.5 to 10 nM, respectively.

For `NS(=O)(=O)c1nnc(NC(=O)C23CC(c4cn(CCNC(=O)[C@@H]5CN(C(=O)CN6CCN(CC(=O)O)CCN(CC(=O)O)CCN(CC(=O)O)CC6)CCN5C(=O)C[C@H](Nc5ncc(C(=O)NCCc6ccc(C(F)(F)F)cc6)cn5)C(=O)O)nn4)(C2)C3)s1.[Lu+3]` [Compound 111.7], the Kd on human CA-IX (setting [1]) was 2.5 to 10 nM; on human CA-XII (setting [2]), greater than 10 nM.

`N[C@@H](CC(=O)N[C@@H](CC(=O)N1CCN(C(=O)CN2CCN(CC(=O)O)CCN(CC(=O)O)CCN(CC(=O)O)CC2)C[C@H]1C(=O)NCCn1cc(C23CC(C(=O)Nc4nnc(S(N)(=O)=O)s4)(C2)C3)nn1)C(=O)O)C(=O)O.[Lu+3]` [Compound 109.13]: the Kd at human CA-IX (setting [1]) was less than 1 nM; at human CA-XII (setting [2]) it was 2.5 to 10 nM.

`CC(CCCC(=O)N1CCOC[C@H]1C(=O)N[C@@H](CC(=O)N1CCN(C(=O)CN2CCN(CC(=O)O)CCN(CC(=O)O)CCN(CC(=O)O)CC2)C[C@H]1C(=O)NCCn1cc(C23CC(c4cn5nc(S(N)(=O)=O)sc5n4)(C2)C3)nn1)C(=O)O)(c1ccc(O)cc1)c1ccc(O)cc1.[Lu+3]` [Compound 107.48]: the Kd is less than 1 nM at human CA-IX (setting [1]) and 1 to 2.5 nM on human CA-XII (setting [2]).

Take `NS(=O)(=O)c1c(F)c(F)c(S(=O)(=O)CCOCc2cn(CCCNC(=O)[C@@H]3CN(C(=O)CN4CCN(CC(=O)O)CCN(CC(=O)O)CCN(CC(=O)O)CC4)CCN3C(=O)CNC(=O)C3(C(=O)O)CCN(C(=O)CCCCc4ccc(O)cc4)CC3)nn2)c(NC2CCCCCCC2)c1F.[Lu+3]` [Compound 107.45]: the Kd at human CA-IX (setting [1]) was less than 1 nM; on human CA-XII (setting [2]) it was 2.5 to 10 nM.

Consider `CC(CCC(=O)N[C@@H](CC(=O)N[C@@H](CC(=O)N1CCN(C(=O)[C@H](CCC(=O)NCCOCCOCCOCCOCCOCCOCCOCCOCCC(=O)N[C@@H](CCCCNC(=O)CCCc2ccc(I)cc2)C(=O)O)NC(=O)CN2CCN(CC(=O)O)CCN(CC(=O)O)CCN(CC(=O)O)CC2)C[C@H]1C(=O)NCCn1cc(C23CC(C(=O)Nc4nnc(S(N)(=O)=O)s4)(C2)C3)nn1)C(=O)O)C(=O)O)(c1ccc(O)cc1)c1ccc(O)cc1.[Lu+3]` (racemic) [Compound 125], for which the Kd is 1 to 2.5 nM on human CA-IX (setting [3]) and greater than 10 nM at human CA-XII (setting [4]).

Turning to `CC(CCCC(=O)N1CCC(C(=O)O)(C(=O)NCC(=O)N2CCN(C(=O)CN3CCN(CC(=O)O)CCN(CC(=O)O)CCN(CC(=O)O)CC3)C[C@@H]2C(=O)NCCn2cc(C34CC(C(=O)Nc5nnc(S(N)(=O)=O)s5)(C3)C4)nn2)CC1)(c1ccc(O)cc1)c1ccc(O)cc1.[Lu+3]` [Compound 107.6], the Kd on human CA-IX (setting [1]) was less than 1 nM; on human CA-XII (setting [2]) it was greater than 10 nM.

For the compound `Cc1cc(C(=O)Nc2nnc(S(N)(=O)=O)s2)ccc1-c1cn(CCNC(=O)C2(NC(=O)CNC(=O)C3(C(N)=O)CCN(C(=O)CCCC(C)(c4ccc(O)cc4)c4ccc(O)cc4)CC3)CCN(C(=O)CC[C@H](C(=O)O)N3CCN(CC(=O)O)CCN(CC(=O)O)CCN(CC(=O)O)CC3)CC2)nn1.[Lu+3]` [Compound 127.7], the values for the Kd at human CA-IX (setting [1]) and at human CA-XII (setting [2]) were less than 1 nM and greater than 10 nM, respectively.

For the compound `NS(=O)(=O)c1nnc(NC(=O)C23CCC(c4cn(CCNC(=O)[C@@H]5CN(C(=O)CN6CCN(CC(=O)O)CCN(CC(=O)O)CCN(CC(=O)O)CC6)CCN5C(=O)CC[C@H](NC(=O)C[C@H](NC(=O)c5ccc(S(F)(F)(F)(F)F)cc5)C(=O)O)C(=O)O)nn4)(CC2)CC3)s1.[Lu+3]` [Compound 109.58], the Kd at human CA-IX (setting [1]) and at human CA-XII (setting [2]) was less than 1 nM in each case.

In the case of `CC(CCOC(=O)N1CCC(C(N)=O)(C(=O)NCC(=O)N2CCN(C(=O)CN3CCN(CC(=O)O)CCN(CC(=O)O)CCN(CC(=O)O)CC3)C[C@H]2C(=O)NCCn2cc(C34CC(C(=O)Nc5nnc(S(N)(=O)=O)s5)(C3)C4)nn2)CC1)(c1ccc(O)cc1)c1ccc(O)cc1.[Lu+3]` [Compound 107.57], the results for the Kd at human CA-IX (setting [1]) and at human CA-XII (setting [2]) were 1 to 2.5 nM and greater than 10 nM, respectively.

`CC(C)c1ccc(C(=O)N[C@@H](CC(=O)N[C@@H](CC(=O)N2CCN(C(=O)CN3CCN(CC(=O)O)CCN(CC(=O)O)CCN(CC(=O)O)CC3)C[C@H]2C(=O)NCCn2cc(C34CC(C(=O)Nc5nnc(S(N)(=O)=O)s5)(C3)C4)nn2)C(=O)O)C(=O)O)cc1.[Lu+3]` [Compound 109.39]: the values for the Kd on human CA-IX (setting [1]) and at human CA-XII (setting [2]) were 1 to 2.5 nM and 2.5 to 10 nM, respectively.

In the case of `NS(=O)(=O)c1nnc(NC(=O)C23CC(c4cn(CCNC(=O)[C@@H]5CN(C(=O)CN6CCN(CC(=O)O)CCN(CC(=O)O)CCN(CC(=O)O)CC6)CCN5C(=O)C[C@H](NC(=O)C[C@H](NC(=O)c5n[nH]c6ccc(F)cc56)C(=O)O)C(=O)O)nn4)(C2)C3)s1.[Lu+3]` [Compound 109.15], the Kd on human CA-IX (setting [1]) is less than 1 nM; at human CA-XII (setting [2]), 2.5 to 10 nM.

For `CC(CCCC(=O)N1CCOC[C@H]1C(=O)N[C@@H](CC(=O)N1CCN(C(=O)CN2CCN(CC(=O)O)CCN(CC(=O)O)CCN(CC(=O)O)CC2)C[C@@H]1C(=O)NCCn1cc(C23CC(C(=O)Nc4nnc(S(N)(=O)=O)s4)(C2)C3)nn1)C(=O)O)(c1ccc(O)cc1)c1ccc(O)cc1.[Lu+3]` [Compound 108.2], the Kd on human CA-IX (setting [1]) is less than 1 nM; on human CA-XII (setting [2]), greater than 10 nM.

In the case of `CC(CCC(=O)N[C@@H](CC(=O)N[C@@H](CC(=O)N1CCN(C(=O)CN2CCN(CC(=O)O)CCN(CC(=O)O)CCN(CC(=O)O)CC2)CC1C(=O)NCCn1cc(C23CCC(C(=O)Nc4nnc(S(N)(=O)=O)s4)(CC2)C3)nn1)C(=O)O)C(=O)O)(c1ccc(O)cc1)c1ccc(O)cc1.[Lu+3]` (stereo partly drawn) [Compound 107.1], the dissociation constant (Kd) on human CA-IX (setting [1]) and at human CA-XII (setting [2]) was less than 1 nM in each case.
